{"source": "patent US20240424111A1", "about": "“Degrader Compounds and Uses Thereof” (CALICO LIFE SCIENCES LLC, priority 2021, published 2024)", "key": {"[1]": {"target": "T1, PTPN2 (Homo sapiens, UniProt P17706)", "T1 construct": "expressed in transfected cells; host or cells: 293T.109 (HiBiT-PTPN2), derived from 293T WT (ATCC)", "T1 sequence (P17706 1-415)": "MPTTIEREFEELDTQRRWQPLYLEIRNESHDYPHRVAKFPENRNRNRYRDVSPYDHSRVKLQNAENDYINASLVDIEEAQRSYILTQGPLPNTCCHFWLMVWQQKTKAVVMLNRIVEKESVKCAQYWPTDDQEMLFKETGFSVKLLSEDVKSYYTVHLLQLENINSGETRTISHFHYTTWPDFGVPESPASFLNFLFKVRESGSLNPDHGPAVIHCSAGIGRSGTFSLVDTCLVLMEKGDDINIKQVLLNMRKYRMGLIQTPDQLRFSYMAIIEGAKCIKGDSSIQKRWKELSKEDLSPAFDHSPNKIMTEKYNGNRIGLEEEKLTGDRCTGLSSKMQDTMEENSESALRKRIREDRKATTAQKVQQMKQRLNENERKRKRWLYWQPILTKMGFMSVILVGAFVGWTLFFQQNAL", "experiment": "HiBiT PTPN2 degradation in 293T.109 (HiBiT-PTPN2) cells, 24 hours", "format": "cell-based", "details": "293T.109 cells", "excerpt": "Dulbecco's modified Eagle medium (DMEM) without phenol red and fetal bovine serum (FBS) were purchased from Gibco (Grand Island, NY, USA). Nano-Glo® HiBiT Lytic Assay System was purchased from Promega (Medison, WI, USA). 293T. 109 (HiBiT-PTPN2) cell line was generated by ectopically expressing PTPN2 with N-terminal HiBiT fusion tag in 293T WT cell line purchased from ATCC (Manassas, VA, USA). Cell culture flasks and 384-well microplates were acquired from VWR (Radnor, PA, USA).\nPTPN2 Degradation Analysis\n(§1) PTPN2 degradation was determined based on quantification of luminescent signal using Nano-Glo® HiBiT Lytic Assay kit. Test compounds were added to the 384-well plate from a top concentration of 10 μM with 11 points, half log titration in duplicates. 293T. 109 cells were added into 384-well plates at a cell density of 5000 cells per well. The plates were kept at 37° C. with 5% CO2 for 24 hours. The cells treated in the absence of the test compound were the negative control and the cells without Nano-Glo® HiBiT Lytic reagent were the positive control. After 24-hour incubation, Nano-Glo® HiBiT Lytic Assay reagents were added to the cells. Luminescence was acquired on EnVision™ Multilabel Reader (PerkinElmer, Santa Clara, CA, USA)."}, "[2]": {"target": "T2, PTPN2 (Mus musculus, UniProt Q06180)", "T2 construct": "HiBiT; host or cells: B16F10.4", "T2 sequence (Q06180 1-406)": "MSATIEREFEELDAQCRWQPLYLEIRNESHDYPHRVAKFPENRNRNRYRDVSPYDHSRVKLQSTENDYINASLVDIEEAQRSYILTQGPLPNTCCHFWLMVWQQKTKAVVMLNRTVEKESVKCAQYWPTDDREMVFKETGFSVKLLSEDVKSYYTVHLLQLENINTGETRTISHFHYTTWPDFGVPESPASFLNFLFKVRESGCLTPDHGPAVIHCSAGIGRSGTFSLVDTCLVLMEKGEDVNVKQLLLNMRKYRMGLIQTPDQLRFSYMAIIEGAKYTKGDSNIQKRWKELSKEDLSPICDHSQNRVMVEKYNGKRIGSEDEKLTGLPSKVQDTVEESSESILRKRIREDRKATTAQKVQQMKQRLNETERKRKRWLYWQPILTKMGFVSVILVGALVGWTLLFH", "experiment": "HiBiT PTPN2 degradation in B16F10.4 cells, 24 hours", "format": "cell-based", "procedure": "as §1"}}}
{"smiles": "O=C1CCC(N2C(=O)c3cccc4c(N5CCC(CCNC(=O)Nc6ccc7c(F)c(N8CC(=O)NS8(=O)=O)c(O)cc7c6)CC5)ccc2c34)C(=O)N1", "note": "(centres unmarked) [Degrader 53]", "values": [{"measurement": "DC50", "setting": "[1]", "result": "< 50", "unit": "nM"}, {"measurement": "DC50", "setting": "[2]", "result": "< 50", "unit": "nM"}]}
{"smiles": "Cn1nc(N2CCC(=O)NC2=O)c2cc(F)c(N3CCC(CC(=O)Nc4ccc5c(F)c(N6CC(=O)NS6(=O)=O)c(O)cc5c4)CC3)cc21", "note": "[Degrader 129]", "values": [{"measurement": "DC50", "setting": "[1]", "result": "50 to 150", "unit": "nM"}, {"measurement": "DC50", "setting": "[2]", "result": "150 to 500", "unit": "nM"}]}
{"smiles": "Cn1c(=O)n(C2CCC(=O)NC2=O)c2ccc(N3CCC(CCC(=O)Nc4ccc5c(F)c(N6CC(=O)NS6(=O)=O)c(O)cc5c4)CC3)cc21", "note": "(centres unmarked) [Degrader 8]", "values": [{"measurement": "DC50", "setting": "[1]", "result": "50 to 150", "unit": "nM"}, {"measurement": "DC50", "setting": "[2]", "result": "50 to 150", "unit": "nM"}]}
{"smiles": "Cn1c(=O)n(C2CCC(=O)NC2=O)c2ccc(-c3cc4cnn(CC(=O)Nc5ccc6c(F)c(N7CC(=O)NS7(=O)=O)c(O)cc6c5)c4cc3F)cc21", "note": "(centres unmarked) [Degrader 83]", "values": [{"measurement": "DC50", "setting": "[1]", "result": "< 50", "unit": "nM"}, {"measurement": "DC50", "setting": "[2]", "result": "< 50", "unit": "nM"}]}
{"smiles": "CCn1c(=O)n(C2CCC(=O)NC2=O)c2ccc(N3CCC(CC(=O)Nc4ccc5c(F)c(N6CC(=O)NS6(=O)=O)c(O)cc5c4)CC3)cc21", "note": "(centres unmarked) [Degrader 22]", "values": [{"measurement": "DC50", "setting": "[1]", "result": "50 to 150", "unit": "nM"}, {"measurement": "DC50", "setting": "[2]", "result": "50 to 150", "unit": "nM"}]}
{"smiles": "Cn1c(=O)n(C2CCC(=O)NC2=O)c2cnc(-c3ccc(CC(=O)Nc4ccc5c(F)c(N6CC(=O)NS6(=O)=O)c(O)cc5c4)cc3)cc21", "note": "(centres unmarked) [Degrader 122]", "values": [{"measurement": "DC50", "setting": "[1]", "result": "≥ 500", "unit": "nM"}, {"measurement": "DC50", "setting": "[2]", "result": "150 to 500", "unit": "nM"}]}
{"smiles": "Cc1nn(CC(=O)Nc2ccc3c(F)c(N4CC(=O)NS4(=O)=O)c(O)cc3c2)c(C)c1-c1ccc2c(c1)n(C)c(=O)n2C1CCC(=O)NC1=O", "note": "(centres unmarked) [Degrader 70]", "values": [{"measurement": "DC50", "setting": "[1]", "result": "< 50", "unit": "nM"}, {"measurement": "DC50", "setting": "[2]", "result": "< 50", "unit": "nM"}]}
{"smiles": "Cn1c(=O)n(C2CCC(=O)NC2=O)c2cccc(N3CCC[C@@H](OCC(=O)Nc4ccc5c(F)c(N6CC(=O)NS6(=O)=O)c(O)cc5c4)C3)c21", "note": "(some centres unmarked) [Degrader 135]", "values": [{"measurement": "DC50", "setting": "[1]", "result": "≥ 500", "unit": "nM"}, {"measurement": "DC50", "setting": "[2]", "result": "≥ 500", "unit": "nM"}]}
{"smiles": "Cc1nn(C2CCC(=O)NC2=O)c2ccc(C3CCN(CC(=O)Nc4ccc5c(F)c(N6CC(=O)NS6(=O)=O)c(O)cc5c4)CC3)cc12", "note": "(centres unmarked) [Degrader 100]", "values": [{"measurement": "DC50", "setting": "[1]", "result": "< 50", "unit": "nM"}, {"measurement": "DC50", "setting": "[2]", "result": "150 to 500", "unit": "nM"}]}
{"smiles": "Cn1c(=O)n(C2CCC(=O)NC2=O)c2ccc3c(c21)CCCN3CCCCC(=O)Nc1ccc2c(F)c(N3CC(=O)NS3(=O)=O)c(O)cc2c1", "note": "(centres unmarked) [Degrader 146]", "values": [{"measurement": "DC50", "setting": "[1]", "result": "< 50", "unit": "nM"}, {"measurement": "DC50", "setting": "[2]", "result": "50 to 150", "unit": "nM"}]}
{"smiles": "Cn1c(=O)n(C2CCC(=O)NC2=O)c2ccc(-n3ccc(CC(=O)Nc4ccc5c(F)c(N6CC(=O)NS6(=O)=O)c(O)cc5c4)n3)cc21", "note": "(centres unmarked) [Degrader 88]", "values": [{"measurement": "DC50", "setting": "[1]", "result": "150 to 500", "unit": "nM"}, {"measurement": "DC50", "setting": "[2]", "result": "≥ 500", "unit": "nM"}]}
{"smiles": "Cn1c(=O)n(C2CCC(=O)NC2=O)c2ccc(C3CCN(C4CC(C(=O)Nc5ccc6cc(N7CC(=O)NS7(=O)=O)ccc6c5)C4)CC3(F)F)cc21", "note": "(centres unmarked) [Degrader 102]", "values": [{"measurement": "DC50", "setting": "[1]", "result": "50 to 150", "unit": "nM"}, {"measurement": "DC50", "setting": "[2]", "result": "50 to 150", "unit": "nM"}]}
{"smiles": "O=C1CCC(N2CCc3cc(C4CCN(CC(=O)N5CCC(c6ccc7cc(O)c(N8CC(=O)NS8(=O)=O)c(F)c7c6)CC5)CC4)ccc32)C(=O)N1", "note": "(centres unmarked) [Degrader 154]", "values": [{"measurement": "DC50", "setting": "[1]", "result": "150 to 500", "unit": "nM"}, {"measurement": "DC50", "setting": "[2]", "result": "150 to 500", "unit": "nM"}]}
{"smiles": "Cn1c(=O)n(C2CCC(=O)NC2=O)c2ccc(CC3CCN(C(=O)Nc4ccc5c(F)c(N6CC(=O)NS6(=O)=O)c(O)cc5c4)CC3)cc21", "note": "(centres unmarked) [Degrader 34]", "values": [{"measurement": "DC50", "setting": "[1]", "result": "≥ 500", "unit": "nM"}, {"measurement": "DC50", "setting": "[2]", "result": "≥ 500", "unit": "nM"}]}
{"smiles": "COc1cc(CC(=O)Nc2ccc3c(F)c(N4CC(=O)NS4(=O)=O)c(O)cc3c2)ccc1-c1ccc2c(c1)n(C)c(=O)n2C1CCC(=O)NC1=O", "note": "(centres unmarked) [Degrader 69]", "values": [{"measurement": "DC50", "setting": "[1]", "result": "150 to 500", "unit": "nM"}, {"measurement": "DC50", "setting": "[2]", "result": "150 to 500", "unit": "nM"}]}
{"smiles": "Cn1c(=O)n(C2CCC(=O)NC2=O)c2ccc(Nc3ccc(CC(=O)Nc4ccc5c(F)c(N6CC(=O)NS6(=O)=O)c(O)cc5c4)cc3F)cc21", "note": "(centres unmarked) [Degrader 71]", "values": [{"measurement": "DC50", "setting": "[1]", "result": "50 to 150", "unit": "nM"}, {"measurement": "DC50", "setting": "[2]", "result": "50 to 150", "unit": "nM"}]}
{"smiles": "Cn1c(=O)n(C2CCC(=O)NC2=O)c2ccc(N3CCC(CC(=O)Nc4ccc5c(F)c(N6CC(=O)NS6(=O)=O)c(O)cc5c4)CC3)c(F)c21", "note": "(centres unmarked) [Degrader 46]", "values": [{"measurement": "DC50", "setting": "[1]", "result": "50 to 150", "unit": "nM"}, {"measurement": "DC50", "setting": "[2]", "result": "150 to 500", "unit": "nM"}]}
{"smiles": "O=C1CCC(c2ccc(C3CCN(CC(=O)Nc4ccc5c(F)c(N6CC(=O)NS6(=O)=O)c(O)cc5c4)CC3)cc2)C(=O)N1", "note": "(centres unmarked) [Degrader 128]", "values": [{"measurement": "DC50", "setting": "[1]", "result": "150 to 500", "unit": "nM"}, {"measurement": "DC50", "setting": "[2]", "result": "≥ 500", "unit": "nM"}]}
{"smiles": "Cn1c(=O)n(C2CCC(=O)NC2=O)c2ccc(-c3ccn(CC(=O)Nc4ccc5c(F)c(N6CC(=O)NS6(=O)=O)c(O)cc5c4)n3)cc21", "note": "(centres unmarked) [Degrader 149]", "values": [{"measurement": "DC50", "setting": "[1]", "result": "150 to 500", "unit": "nM"}, {"measurement": "DC50", "setting": "[2]", "result": "150 to 500", "unit": "nM"}]}
